# Marks after values point to notes of the source that are not given here.
# Legend:
# [1] = tested on: collagen-induced arthritis; experiment: Collagen-induced arthritis (CII/CFA), histopathology, clinical score, knee homogenate prostaglandins; type: in vivo, mouse
# [2] = tested on: rat spinal cord motor neurones; experiment: Neurite growth of spinal cord motor neurones in primary culture (anti β-Tubulin, In Cell Analyzer); type: cell-based
# Protocol: Rat spinal motor neurones were prepared according to the method described by Martinou et al., 1992 (Martinou J C, Martinou I, Kato AC Cholinergic differentiation factor (CDF/LIF) promotes survival of isolated rat embryonic motoneurons in vitro. Neuron. 1992 April; 8(4):737-44). Briefly, pregnant female Wistar rats of 15 days gestation, were killed by cervical dislocation and the foetuses were removed from the uterus. Their spinal cords were removed and placed in ice-cold medium of Leibovitz (L15, Invitrogen, 11415-049) containing 1% of bovine serum albuminutes (BSA fatty acid free, Eurobio, Les Ulis, France, GXXBSA01-65). Meninges were carefully removed.
# The spinal motor neurones were dissociated by trypsinisation for 20 minutes at 37° C. (trypsin EDTA 10× Invitrogen 15400054) diluted in PBS without calcium and magnesium (Invitrogen 2007-03). The reaction was stopped by the addition of Dulbecco Modified Eagle's Media (DMEM, Invitrogen 21969-035) containing DNase I grade II (0.1 mg/ml Roche diagnostic 104159) and 10% foetal calf serum (FCS, Invitrogen 10270098). The suspension was then mechanically dissociated by 3 passages through a 10 ml pipette. Cells were then centrifuged at 580 g for 10 minutes at room temperature. The pellet of dissociated cells was re-suspended in L15 medium and the resulting suspension was enriched in motor neurones by centrifugation at 180×g for 10 minutes at room temperature on a layer of BSA solution (3.5%) in L15 medium. The supernatant was discarded and the pellet was re-suspended in L15 medium supplemented with DNase I (1%). Then the suspension was layered over a cushion of Optiprep (d: 1.06 g/ml; Abcys, Paris, France; 1030061) and centrifuged at 335×g for 15 minutes at room temperature. The upper phase, containing the purified motor neurones, was collected, re-suspended with L15 medium and centrifuged at 800×g for 10 minutes at room temperature. The cell pellet was finally resuspended in a defined culture medium consisting of neurobasal medium supplemented with 2% B27, 2 mM L-Glutamine and Penicillin 50 Ul/ml-Streptomycin 50 μg/ml. Viable cells were counted in a Neubauer cytometer using the trypan blue exclusion test (Sigma T8154) then plated at 30 000 cells/well in 96 well-plates (pre-coated with poly-1-lysine; Nunclon, Invitrogen P5899) and cultured at 37° C. in a humidified air (95%) CO2 (5%) atmosphere.
# The culture medium was changed into a defined culture medium after a 12 hours incubation period following the conditions described below:
# BDNF 50 ng/ml and 10 ng/ml (in 0.1% DMSO)
# After 6 hours, 12 hours and 24 hours of incubation with, cells were fixed for 5 minutes in an ethanol/acetic acid solution (95%/5%) at −20° C. and rinsed 3 times in PBS.
# Motor neurones and sensory neurones were labelled by monoclonal anti β-Tubulin antibody (Sigma T8660) diluted at 1:400 in incubation solution (PBS with 5% of FCS and 0.1% of saponin, Sigma S-7900). This antibody specifically labels neurone cell bodies and neurites.
# After 2 hours of incubation, the cells were washed in PBS and incubated with Alexa Fluor 488 goat anti mouse IgG (Molecular Probes A11001) diluted at 1:300 in incubation solution to reveal the 8-Tubulin III antibodies.
# Analysis of the total length of neurones labelled with anti β-Tubulin antibodies (neurones) were carried out using In Cell Analyzer 1000 3.2.Workstation software.
# The results were expressed in percentage compared to the vehicle. Comparison of groups was carried out using the unpaired T test.
compound,measurement,setting,value
"CC12CCC3C(C1CCC2=O)[C@@H](O)C[C@H]1C[C@@H](O)CCC31C (stereo partly drawn) [Compound 7β-OH-EPIA, 7β-hydroxy-EPIAndrosterone]",15d-PGJ2 in knee homogenates,"[1]; 0.1 μg/kg day, D 20-50, Day 50",78.96 ± 22.18 pg/mL
same,Clinical Score (joint swelling),"[1]; 0.1 μg/kg day, D 20-50, Day 50",3.10 ± 2.96
same,PGE2/15d-PGJ2,"[1]; 0.1 μg/kg day, D 20-50, Day 50",1.21
same,PGE2 in knee homogenates,"[1]; 0.1 μg/kg day, D 20-50, Day 50",95.61 ± 34.65 pg/mL
same,Histopathology Score (both paws on Day 50),"[1]; 1.0 μg/kg s.c. daily, treatment from Day 20-50",0.60
same,animals completely clear of histopathological change in the paw joints,"[1]; 10.0 μg/kg, treatment day 0 to day 30",9 out of 10
same,Histopathology Score (both paws on Day 50),"[1]; 10.0 μg/kg, treatment from Day 0-30",0.2*
same,Histopathology Score (both paws on Day 50),"[1]; 10.0 μg/kg, treatment from Day 20-50",0.44
same,Histopathology Score (both paws on Day 50),"[1]; 100.0 μg/kg, treatment from Day 20-50",0.85
same,"Neurites length per field, % Vehicle","[2]; 10^−4 M, 6 hours",124%
same,"Neurites length per field, Mean","[2]; 10^−4 M, 6 hours",315.9 μm
same,"Neurites length per field, % Vehicle","[2]; 10^−4 M, 12 hours",142%
same,"Neurites length per field, Mean","[2]; 10^−4 M, 12 hours",602.4 μm
same,"Neurites length per field, % Vehicle","[2]; 10^−4 M, 24 hours",87%
same,"Neurites length per field, Mean","[2]; 10^−4 M, 24 hours",188.4 μm
same,"Neurites length per field, % Vehicle","[2]; 10^−5 M, 6 hours",115%
same,"Neurites length per field, Mean","[2]; 10^−5 M, 6 hours",293.3 μm
same,"Neurites length per field, % Vehicle","[2]; 10^−5 M, 12 hours",161%
same,"Neurites length per field, Mean","[2]; 10^−5 M, 12 hours",680.9 μm
same,"Neurites length per field, % Vehicle","[2]; 10^−5 M, 24 hours",93%
same,"Neurites length per field, Mean","[2]; 10^−5 M, 24 hours",200.9 μm
same,"Neurites length per field, % Vehicle","[2]; 10^−6 M, 6 hours",139%
same,"Neurites length per field, Mean","[2]; 10^−6 M, 6 hours",354.5 μm
same,"Neurites length per field, % Vehicle","[2]; 10^−6 M, 12 hours",137%
same,"Neurites length per field, Mean","[2]; 10^−6 M, 12 hours",580.3 μm
same,"Neurites length per field, % Vehicle","[2]; 10^−6 M, 24 hours",104%
same,"Neurites length per field, Mean","[2]; 10^−6 M, 24 hours",224.8 μm
same,"Neurites length per field, % Vehicle","[2]; 10^−7 M, 6 hours",138%
same,"Neurites length per field, Mean","[2]; 10^−7 M, 6 hours",350.5 μm
same,"Neurites length per field, % Vehicle","[2]; 10^−7 M, 12 hours",137%
same,"Neurites length per field, Mean","[2]; 10^−7 M, 12 hours",956.7 μm
same,"Neurites length per field, % Vehicle","[2]; 10^−7 M, 24 hours",126%
same,"Neurites length per field, Mean","[2]; 10^−7 M, 24 hours",271.7 μm
same,"Neurites length per field, % Vehicle","[2]; 10^−8 M, 6 hours",150%
same,"Neurites length per field, Mean","[2]; 10^−8 M, 6 hours",382.4 μm
same,"Neurites length per field, % Vehicle","[2]; 10^−8 M, 12 hours",179%
same,"Neurites length per field, Mean","[2]; 10^−8 M, 12 hours",759.0 μm
same,"Neurites length per field, % Vehicle","[2]; 10^−8 M, 24 hours",174%
same,"Neurites length per field, Mean","[2]; 10^−8 M, 24 hours",374.6 μm
same,"Neurites length per field, % Vehicle","[2]; 10^−9 M, 6 hours",188%
same,"Neurites length per field, Mean","[2]; 10^−9 M, 6 hours",479.3 μm
same,"Neurites length per field, % Vehicle","[2]; 10^−9 M, 12 hours",180%
same,"Neurites length per field, Mean","[2]; 10^−9 M, 12 hours",764.9 μm
same,"Neurites length per field, % Vehicle","[2]; 10^−9 M, 24 hours",123%
same,"Neurites length per field, Mean","[2]; 10^−9 M, 24 hours",265.9 μm

# From US20130023504A1, “Modulation of Prostaglandin/Cyclooxygenase Metabolic Pathways” (HUNTER-FLEMING LIMITED, priority 2006, published 2013)
